Counter-ions that a name gives are not always drawn.
How the values were obtained:
[1] = test system: Sonic Hedgehog (SHH) ligand expression in bladder cancer cells; assay: Sonic Hedgehog ligand expression in bladder cancer cells after chemotherapy; format: cell-based, human; settings: over time after chemotherapy
Description: Similar results showing increases in Hh ligand expression in response to chemotherapy have been found in other tumor cells. For example, chemotherapy increases in Sonic Hedgehog (SHH) ligand expression in bladder cancer cells are depicted in FIGS. 4A-4D.

Pgp = Pgp (Homo sapiens, UniProt P08183); settings: cited from earlier work
Pgp, sequence (P08183 whole entry): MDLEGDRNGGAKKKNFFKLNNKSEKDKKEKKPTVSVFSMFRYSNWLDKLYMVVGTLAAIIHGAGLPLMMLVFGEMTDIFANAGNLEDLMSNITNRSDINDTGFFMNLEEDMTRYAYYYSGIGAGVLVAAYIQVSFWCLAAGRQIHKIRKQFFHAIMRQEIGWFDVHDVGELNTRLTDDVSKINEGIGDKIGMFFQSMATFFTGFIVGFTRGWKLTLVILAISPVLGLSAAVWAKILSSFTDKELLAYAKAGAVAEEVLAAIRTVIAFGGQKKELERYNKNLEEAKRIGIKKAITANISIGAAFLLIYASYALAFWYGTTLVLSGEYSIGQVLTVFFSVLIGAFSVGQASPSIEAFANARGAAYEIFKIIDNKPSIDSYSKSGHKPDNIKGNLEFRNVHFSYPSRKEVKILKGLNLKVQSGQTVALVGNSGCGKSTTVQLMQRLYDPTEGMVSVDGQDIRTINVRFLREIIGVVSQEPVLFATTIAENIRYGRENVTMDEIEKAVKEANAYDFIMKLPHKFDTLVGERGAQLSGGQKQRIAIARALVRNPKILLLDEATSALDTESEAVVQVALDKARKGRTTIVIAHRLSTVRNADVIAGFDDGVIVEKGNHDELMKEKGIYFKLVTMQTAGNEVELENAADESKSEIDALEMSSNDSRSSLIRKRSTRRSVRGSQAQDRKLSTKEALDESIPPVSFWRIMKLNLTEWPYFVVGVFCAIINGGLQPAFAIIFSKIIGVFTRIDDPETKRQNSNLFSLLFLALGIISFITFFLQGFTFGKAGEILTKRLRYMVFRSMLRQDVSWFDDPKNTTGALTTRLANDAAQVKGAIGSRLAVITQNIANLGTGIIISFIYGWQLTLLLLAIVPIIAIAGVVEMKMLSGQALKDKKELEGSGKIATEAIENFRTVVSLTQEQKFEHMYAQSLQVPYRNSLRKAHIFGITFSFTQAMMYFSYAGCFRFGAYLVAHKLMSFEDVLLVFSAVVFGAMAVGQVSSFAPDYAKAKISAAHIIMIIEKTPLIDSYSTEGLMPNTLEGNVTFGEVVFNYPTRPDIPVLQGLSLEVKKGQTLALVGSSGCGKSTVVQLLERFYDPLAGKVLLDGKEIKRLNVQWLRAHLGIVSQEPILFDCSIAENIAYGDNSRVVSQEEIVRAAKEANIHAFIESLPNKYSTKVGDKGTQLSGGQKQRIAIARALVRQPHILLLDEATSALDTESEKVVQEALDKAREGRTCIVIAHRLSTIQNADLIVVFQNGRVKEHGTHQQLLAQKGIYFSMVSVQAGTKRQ

hedgehog pathway = assay: C3H10T1/2 alkaline phosphatase assay (Shh-dependent osteoblast differentiation); format: cell-based; settings: Mus musculus, C3H 10T1/2; sonic hedgehog 250 ng/ml; AP normalized to total protein; read-out: IC50, antagonist of the hedgehog pathway (AP activity)
Description: Cancer cell killing by inhibition of a component of the hedgehog pathway can be ascertained using the following assay. C3H10T1/2 cells differentiate into osteoblasts when contacted with the sonic hedgehog peptide (Shh-N). Upon differentiation, these osteoblasts produce high levels of alkaline phosphatase (AP) which can be measured in an enzymatic assay (Nakamura et al., 1997 BBRC 237: 465). Compounds that block the differentiation of C3H10T1/2 into osteoblasts (a Shh dependent event) can therefore be identified by a reduction in AP production (van der Horst et al., 2003 Bone 33: 899). The assay details are described below. Additional assays to ascertain the activity of hedgehog inhibitors, including IPI-926, are described in US 2009/0181997 by Grayzel et al.; U.S. Ser. No. 61/327,373 and 61/331,365, filed on Apr. 23, 2010 and May 4, 2010, respectively; the entire contents of the aforesaid applications are incorporated herein by reference. […]
C3H10T1/2 cells were plated in 96 wells with a density of 8×10^3 cells/well. […] After incubating for 30 min at 37° C., the plates were read on an Envision plate reader at 405 nm. Total protein was quantified with a BCA protein assay kit from Pierce according to manufacturer's instructions. […]

[2] = test system: LuCaP35V (Castration Resistant) primary prostate cancer; assay: LuCaP35V castration resistant primary prostate cancer model; format: in vivo; settings: docetaxel IV Q14D for 28 days, docetaxel+vehicle samples
Description: The effects of IPI-926 were examined following docetaxel chemotherapy in a model of castration resistant prostate cancer. Prostate cancer is known to be a highly desmoplastic cancer, and one that preferentially metastasizes to bone. Sonic hedgehog ligand is expressed in clinical specimens and primary xenograft models. […] FIG. 7 summarizes the effects of IPI-926 in LuCaP35V (Castration Resistant) primary prostate cancer model. Days of docetaxel and IPI-926 administration are indicated by the arrowheads at the indicated days post-implant. The following samples were tested: Vehicle control (administered orally once a day), 40 mg/kg of IPI-926 (administered orally once a day), docetaxel (administered intravenously Q14D for 28 days), or docetaxel (administered intravenously Q14D for 28 days) followed by 40 mg/kg of IPI-926, as shown in FIG. 7. […] Thus, IPI-926 can be useful as maintenance therapy in prostate cancer.

[3] = test system: Ptch1+/-; p53-/- medulloblastoma; settings: cited from earlier work

Compound: COc1cccc2c1C(=O)c1c(O)c3c(c(O)c1C2=O)C[C@@](O)(C(=O)CO)C[C@@H]3O[C@H]1C[C@H](N)[C@H](O)[C@H](C)O1 [Doxorubicin]
- Sonic Hedgehog (SHH) ligand expression [1]: increase in expression over time

Compound: CS(=O)(=O)c1ccc(C(=O)Nc2ccc(Cl)c(-c3ccccn3)c2)c(Cl)c1 [GDC-0449]
- Pgp substrate (Pgp): p-glycoprotein (Pgp) substrate

Compound: Nc1ccn([C@@H]2O[C@H](CO)[C@@H](O)C2(F)F)c(=O)n1 [Gemcitabine]
- Sonic Hedgehog (SHH) ligand expression [1]: increase in expression over time

Compound: CC1=C2C[C@H]3[C@@H](CC[C@@H]4C[C@H](NS(C)(=O)=O)CC[C@@]43C)[C@@H]2CC[C@@]2(C1)O[C@@H]1C[C@H](C)CN[C@H]1[C@H]2C [IPI-926 (HCl salt)]
- IC50 (hedgehog pathway): < 0.02 µM

Compound: CC(=O)O[C@@]12CO[C@@H]1C[C@H](O)[C@@]1(C)C(=O)[C@H](O)C3=C(C)[C@@H](OC(=O)[C@H](O)[C@@H](NC(=O)OC(C)(C)C)c4ccccc4)C[C@@](O)([C@@H](OC(=O)c4ccccc4)[C@H]21)C3(C)C [docetaxel, reference compound]
- tumor volume after cessation of docetaxel [2]: Tumor reoccurrence was detected

Compound: HhAntag
- survival vs vehicle ([3]; 100 mg/kg, enrolled at 5 weeks of age): survival benefit
- tumor mass ([3]; 2 weeks of twice daily 20 mg/kg or 100 mg/kg, enrolled at 3 weeks of age): substantial decrease in tumor mass
